Laboratory results: US5744298A, “DNA sequences which encode immunoreactive HCMV-specific peptides” (Behringwerke Aktiengesellschaft, priority 1991, dated 1998)
Where no end group is shown, it is not given here.

B1: recombinant protein XP1: recombinant protein section, amino acid 718-880 of HCMV protein pp150 (protein)
chain: DPRFTDTLVDITDTETSAKPPVTTAYKFEQPTLTFGAGVNVPAGAGAAILTPTPVNPSTAPAPAPTPTFAGTQTPVNGNSPWAPTAPLPGDMNPANWPRERAWALKNPHLAYNPFRMPTTSTASQNTVSTTPRRPSTPRAAVTQTASRDAADEVWALRDQTA
B2: HCMV protein pp150: HCMV protein pp150 (protein, UniProt P08318 1-1048, looked up)
Large structural …: MSLQFIGLQRRDVVALVNFLRHLTQKPDVDLEAHPKILKKCGEKRLHRRTVLFNELMLWLGYYRELRFHNPDLSSVLEEFEVRCVAVARRGYTYPFGDRGKARDHLAVLDRTEFDTDVRHDAEIVERALVSAVILAKMSVRETLVTAIGQTEPIAFVHLKDTEVQRIEENLEGVRRNMFCVKPLDLNLDRHANTALVNAVNKLVYTGRLIMNVRRSWEELERKCLARIQERCKLLVKELRMCLSFDSNYCRNILKHAVENGDSADTLLELLIEDFDIYVDSFPQSAHTFLGARSPSLEFDDDANLLSLGGGSAFSSVPKKHVPTQPLDGWSWIASPWKGHKPFRFEAHGSLAPAAEAHAARSAAVGYYDEEEKRRERQKRVDDEVVQREKQQLKAWEERQQNLQQRQQQPPPPARKPSASRRLFGSSADEDDDDDDDEKNIFTPIKKPGTSGKGAASGGGVSSIFSGLLSSGSQKPTSGPLNIPQQQQRHAAFSLVSPQVTKASPGRVRRDSAWDVRPLTETRGDLFSGDEDSDSSDGYPPNRQDPRFTDTLVDITDTETSAKPPVTTAYKFEQPTLTFGAGVNVPAGAGAAILTPTPVNPSTAPAPAPTPTFAGTQTPVNGNSPWAPTAPLPGDMNPANWPRERAWALKNPHLAYNPFRMPTTSTASQNTVSTTPRRPSTPRAAVTQTASRDAADEVWALRDQTAESPVEDSEEEDDDSSDTGSVVSLGHTTPSSDYNNDVISPPSQTPEQSTPSRIRKAKLSSPMTTTSTSQKPVLGKRVATPHASARAQTVTSTPVQGRLEKQVSGTPSTVPATLLQPQPASSKTTSSRNVTSGAGTSSASSARQPSASASVLSPTEDDVVSPATSPLSMLSSASPSPAKSAPPSPVKGRGSRVGVPSLKPTLGGKAVVGRPPSVPVSGSAPGRLSGSSRAASTTPTYPAVTTVYPPSSTAKSSVSNAPPVASPSILKPGASAALQSRRSTGTAAVGSPVKSTTGMKTVAFDLSSPQKSGTGPQPGSAGMGGAKTPSDAVQNILQKIEKIKNTEE

Legend:
CMV IgG-positive sera = test: ELISA of peptide-coated microtiter plates with CMV IgG-positive human sera (localization of epitopes); assay type: binding; details: plate coated with 2.5 μg peptide per ml, serum dilution 1:2; for Reactivity (individual reactivities of particularly reactive peptides with the assayed group of CMV IgG-positive sera, in percent): Table 3
Method: A microtiter plate with 96 wells was coated with a synthesized peptide. To do this, a solution of 2.5 μg of peptide per ml of carbonate buffer was made up and introduced in 100 μl portions into the wells for the coating. The peptides were adsorbed onto the surfaces at 4° C. overnight and, after removal of the peptide solution, the wells were washed several times with washing buffer (50 mM Tris, pH 7.2, 10 mM EDTA, 0.2% Tween 20). Then individual human serum samples in a 1:2 dilution were introduced and incubated at 37° C. for 1 hour. After another washing step, the conjugate antibody specific for human IgG antibodies or human IgM antibodies and labeled with peroxidase was added and the mixture was incubated at room temperature for 0.5 hour. The reaction was subsequently stopped by adding 0.5M sulfuric acid and extinction of the individual samples was measured at a wavelength of 450/650 nm in a photometer.
To test the immunogenicity, peptides of various length from the complete amino-acid sequence region from 718 to 880 of the HCMV protein pp150 (Tab. 2 and 3) were synthesized as described in Example 1. Subsequently, as in Example 2, the microtiter plates were coated with the synthesized peptides, and the immunological reactivity was assayed. […] The three immunologically reactive peptides have the following sequences: […]

[1] = system: monoclonal antibody 87-55/02; test: Reaction of the monoclonal antibody 87-55/02 with peptide epitopes (ELISA, immunoblot); assay type: binding; details: measured as immunoblot and ELISA reactivity
Description: It was concluded from the method for selecting the monoclonal antibody that the identified epitope must have a very important structure which is not even destroyed by denaturation of the complete protein. This monoclonal antibody correspondingly reacts both with the synthesized peptide 2.7 (SEQ ID NO:26) and with the recombinant protein XP1 (SEQ ID NO:33) and the pp150 protein of HCMV.

Row | Molecule | Reactivity (individual reactivities of particularly reactive peptides with the assayed group of CMV IgG-positive sera, in percent) (CMV IgG-positive sera) [%] | Reactivity (individual reactivities of the synthetic pXP1 segments with the assayed group of CMV IgG-positive sera, in percent) (CMV IgG-positive sera; Table 2) [%] | immunological reaction of monoclonal antibody 87-55/02 with protein [1]
1 | ala tyr lys phe glu gln pro thr leu thr phe gly ala gly val asn val pro ala gly ala gly ala ala ile leu thr pro thr pro val asn pro ser thr ala pro ala pro ala pro (AYKFGQPTLTFGAGVNVPAGAGAAILTPTPVNPSTAPAPAP) [Peptide 1.13] | 90 | – | –
2 | phe glu gln pro thr leu thr phe gly ala gly val asn val pro ala gly ala gly ala ala ile leu thr pro thr pro val asn pro ser thr ala pro ala pro ala (FEQPTTLTFGAGVNVPAGAGAAILTPTPVNPSTAPAPA) [Peptide 1.4] | 90 | – | –
3 | pro thr leu thr phe gly ala gly val asn val pro ala gly ala gly ala ala ile leu thr pro thr pro val asn pro ser thr ala pro ala pro ala pro NH2 (PTLTFGAGVNVPAGAGAAILTPTPVNPSTAPAPAP-NH2) [Peptide 1.6] | 90 | 90 | –
4 | B1 | – | – | reacts
5 | B2 | – | – | unambiguous immunological reaction
